From ChEMBL document CHEMBL4177608, “Design and synthesis of benzimidazole-based Rho kinase inhibitors for the treatment of glaucoma” (Bioorg Med Chem, 2017)
In brackets after ≈: the same amount, converted by molar mass.

Columns and labels:
Rattus norvegicus [1] = organism: Rattus norvegicus; experiment: Reduction in intraocular pressure in Wistar rat model of dexamethasone-induced elevated IOP assessed as change in intraocular pressure in contralateral eye at 1 % w/v after 1.5 hrs by tonometry (reference value: 0%); type: ADME, organism-based; design: scale not given: the % may be the effect or the level left; conditions: in vivo
Rattus norvegicus [2] = organism: Rattus norvegicus; experiment: Reduction in intraocular pressure in Wistar rat model of dexamethasone-induced elevated IOP assessed as change in intraocular pressure at 1 % w/v after 4 hrs by tonometry (reference value: 0%); type: functional; design: scale not given: the % may be the effect or the level left
Rattus norvegicus [3] = organism: Rattus norvegicus; experiment: Reduction in intraocular pressure in Wistar rat model of dexamethasone-induced elevated IOP assessed as change in intraocular pressure at 1 % w/v after 1 hr by tonometry (reference value: 0%); type: functional; design: scale not given: the % may be the effect or the level left
[4] = Antioxidant activity assessed as DPPH free radical scavenging activity at 25 ug/ml after 30 mins by spectrophotometric analysis; type: functional
[5] = Antioxidant activity assessed as DPPH free radical scavenging activity at 200 ug/ml after 30 mins by spectrophotometric analysis; type: functional
[6] = Antioxidant activity assessed as DPPH free radical scavenging activity at 100 ug/ml after 30 mins by spectrophotometric analysis; type: functional
Rattus norvegicus [7] = organism: Rattus norvegicus; experiment: Reduction in intraocular pressure in Wistar rat model of dexamethasone-induced elevated IOP assessed as change in intraocular pressure at 1 % w/v after 3 hrs by tonometry (reference value: 0%); type: functional; design: scale not given: the % may be the effect or the level left
Rattus norvegicus [8] = organism: Rattus norvegicus; experiment: Reduction in intraocular pressure in Wistar rat model of dexamethasone-induced elevated IOP assessed as change in intraocular pressure in contralateral eye at 1 % w/v after 1 hr by tonometry (reference value: 0%); type: ADME, organism-based; design: scale not given: the % may be the effect or the level left; conditions: in vivo, topical_or_ocular
Rattus norvegicus [9] = organism: Rattus norvegicus; experiment: Reduction in intraocular pressure in Wistar rat model of dexamethasone-induced elevated IOP assessed as change in intraocular pressure at 1 % w/v after 5 hrs by tonometry (reference value: 0%); type: functional; design: scale not given: the % may be the effect or the level left
[10] = Antioxidant activity assessed as DPPH free radical scavenging activity at 150 ug/ml after 30 mins by spectrophotometric analysis; type: functional
[11] = Antioxidant activity assessed as DPPH free radical scavenging activity after 30 mins by spectrophotometric analysis; type: functional
Rattus norvegicus [12] = organism: Rattus norvegicus; experiment: Reduction in intraocular pressure in Wistar rat model of dexamethasone-induced elevated IOP assessed as change in intraocular pressure in contralateral eye at 1 % w/v after 2.5 hrs by tonometry (reference value: 0%); type: ADME, organism-based; design: scale not given: the % may be the effect or the level left; conditions: in vivo
[13] = Antioxidant activity assessed as DPPH free radical scavenging activity at 50 ug/ml after 30 mins by spectrophotometric analysis; type: functional
Rattus norvegicus [14] = organism: Rattus norvegicus; experiment: Reduction in intraocular pressure in Wistar rat model of dexamethasone-induced elevated IOP assessed as change in intraocular pressure in contralateral eye at 1 % w/v after 5 hrs by tonometry (reference value: 0%); type: ADME, organism-based; design: scale not given: the % may be the effect or the level left; conditions: in vivo
Rattus norvegicus [15] = organism: Rattus norvegicus; experiment: Reduction in intraocular pressure in Wistar rat model of dexamethasone-induced elevated IOP assessed as change in intraocular pressure in contralateral eye at 1 % w/v after 3 hrs by tonometry (reference value: 0%); type: ADME, organism-based; design: scale not given: the % may be the effect or the level left; conditions: in vivo
[16] = 1-Octanol/water partition coefficient, log P of compound at 2 mg after 24 hrs by spectrophotometry based shake flask method; type: physicochemical
Rattus norvegicus [17] = organism: Rattus norvegicus; experiment: Reduction in intraocular pressure in Wistar rat model of dexamethasone-induced elevated IOP assessed as change in intraocular pressure at 1 % w/v after 6 hrs by tonometry (reference value: 0%); type: functional; design: scale not given: the % may be the effect or the level left
Rattus norvegicus [18] = organism: Rattus norvegicus; experiment: Reduction in intraocular pressure in Wistar rat model of dexamethasone-induced elevated IOP assessed as change in intraocular pressure at 1 % w/v after 1.5 hrs by tonometry (reference value: 0%); type: functional; design: scale not given: the % may be the effect or the level left
Rattus norvegicus [19] = organism: Rattus norvegicus; experiment: Reduction in intraocular pressure in Wistar rat model of dexamethasone-induced elevated IOP assessed as change in intraocular pressure at 1 % w/v after 0.5 hrs by tonometry (reference value: 0%); type: functional; design: scale not given: the % may be the effect or the level left
Rattus norvegicus [20] = organism: Rattus norvegicus; experiment: Reduction in intraocular pressure in Wistar rat model of dexamethasone-induced elevated IOP assessed as change in intraocular pressure in contralateral eye at 1 % w/v after 6 hrs by tonometry (reference value: 0%); type: ADME, organism-based; design: scale not given: the % may be the effect or the level left; conditions: in vivo
Rattus norvegicus [21] = organism: Rattus norvegicus; experiment: Reduction in intraocular pressure in Wistar rat model of dexamethasone-induced elevated IOP assessed as change in intraocular pressure at 1 % w/v after 2 hrs by tonometry (reference value: 0%); type: functional; design: scale not given: the % may be the effect or the level left
[22] = Antioxidant activity assessed as DPPH free radical scavenging activity at 5 ug/ml after 30 mins by spectrophotometric analysis; type: functional
Rattus norvegicus [23] = organism: Rattus norvegicus; experiment: Reduction in intraocular pressure in Wistar rat model of dexamethasone-induced elevated IOP assessed as change in intraocular pressure in contralateral eye at 1 % w/v after 2 hrs by tonometry (reference value: 0%); type: ADME, organism-based; design: scale not given: the % may be the effect or the level left; conditions: in vivo
Rattus norvegicus [24] = organism: Rattus norvegicus; experiment: Reduction in intraocular pressure in Wistar rat model of dexamethasone-induced elevated IOP assessed as onset time for reduction in intraocular pressure at 1 % w/v by tonometry; type: functional
Rattus norvegicus [25] = organism: Rattus norvegicus; experiment: Reduction in intraocular pressure in Wistar rat model of dexamethasone-induced elevated IOP assessed as peak effect time for reduction in intraocular pressure at 1 % w/v by tonometry; type: functional, organism-based
Rattus norvegicus [26] = organism: Rattus norvegicus; experiment: Reduction in intraocular pressure in Wistar rat model of dexamethasone-induced elevated IOP assessed as reduction in intraocular pressure at peak effect time at 1 % w/v by tonometry; type: functional; design: scale not given: the % may be the effect or the level left
Rattus norvegicus [27] = organism: Rattus norvegicus; experiment: Reduction in intraocular pressure in Wistar rat model of dexamethasone-induced elevated IOP assessed as change in intraocular pressure at 1 % w/v after 2.5 hrs by tonometry (reference value: 0%); type: functional; design: scale not given: the % may be the effect or the level left
Rattus norvegicus [28] = organism: Rattus norvegicus; experiment: Reduction in intraocular pressure in Wistar rat model of dexamethasone-induced elevated IOP assessed as change in intraocular pressure in contralateral eye at 1 % w/v after 4 hrs by tonometry (reference value: 0%); type: ADME, organism-based; design: scale not given: the % may be the effect or the level left; conditions: in vivo
Rattus norvegicus [29] = organism: Rattus norvegicus; experiment: Reduction in intraocular pressure in Wistar rat model of dexamethasone-induced elevated IOP assessed as change in intraocular pressure in contralateral eye at 1 % w/v after 0.5 hrs by tonometry (reference value: 0%); type: ADME, organism-based; design: scale not given: the % may be the effect or the level left; conditions: in vivo, topical_or_ocular

SMILES	Activity (Rattus norvegicus [1])	Activity (Rattus norvegicus [2])	Activity (Rattus norvegicus [3])	Activity [4]	Activity [5]	Activity [6]	Activity (Rattus norvegicus [7])	Activity (Rattus norvegicus [8])	Activity (Rattus norvegicus [9])	Activity [10]	IC50 [11]	Activity (Rattus norvegicus [12])	Activity [13]	Activity (Rattus norvegicus [14])	Activity (Rattus norvegicus [15])	logP at 24 h [16]	Activity (Rattus norvegicus [17])	Activity (Rattus norvegicus [18])	Activity (Rattus norvegicus [19])	Activity (Rattus norvegicus [20])	also measured
COc1ccc(N2CCN(CC(=O)Nc3nc4ccccc4[nH]3)CC2)cc1	2.83%	7%	5.67%	13.3%	63.7%	38.9%	10.08%	2.07%	3.37%	53.2%	144.19 µg/mL (≈ 395 µM)	3.97%	25.8%	0%	2%	2.65	1.33%	6.15%	3.8%	0%	Activity (Rattus norvegicus [21]): 9.42%; Activity [22]: 7.24%; Activity (Rattus norvegicus [23]): 3.57%; Time (Rattus norvegicus [24]): 0.5 h; Tmax (Rattus norvegicus [25]): 2.5 h; Activity (Rattus norvegicus [26]): 46.92%; Activity (Rattus norvegicus [27]): 15.32%; Activity (Rattus norvegicus [28]): 0.43%; Activity (Rattus norvegicus [29]): 1.2%
O=C(CN1CCN(c2ccccn2)CC1)Nc1nc2ccccc2[nH]1	2%	5.05%	7%	40.9%	76.2%	57.3%	7.82%	1.15%	2.87%	69.1%	69.97 µg/mL (≈ 208 µM)	1.07%	50%	0%	0.65%	1.05	0.65%	10%	4%	0%	Activity (Rattus norvegicus [21]): 15.87%; Activity [22]: 30.8%; Activity (Rattus norvegicus [23]): 4%; Time (Rattus norvegicus [24]): 0.5 h; Tmax (Rattus norvegicus [25]): 2 h; Activity (Rattus norvegicus [26]): 51.38%; Activity (Rattus norvegicus [27]): 10.62%; Activity (Rattus norvegicus [28]): 0%; Activity (Rattus norvegicus [29]): 0.85%
O=C(CN1CCN(CCc2ccccc2)CC1)Nc1nc2ccccc2[nH]1	2.9%	3.76%	5.52%	13.5%	62.9%	38.1%	7.1%	2.07%	0.83%	51.8%	148.39 µg/mL (≈ 408 µM)	2.43%	22.3%	0.43%	1.67%	1.89	0.4%	8.97%	2.53%	0%	Activity (Rattus norvegicus [21]): 10.17%; Activity [22]: 8.11%; Activity (Rattus norvegicus [23]): 3.63%; Time (Rattus norvegicus [24]): 0.5 h; Tmax (Rattus norvegicus [25]): 2 h; Activity (Rattus norvegicus [26]): 37.15%; Activity (Rattus norvegicus [27]): 11.95%; Activity (Rattus norvegicus [28]): 0.83%; Activity (Rattus norvegicus [29]): 1.23%
CCN1CCN(CC(=O)Nc2nc3ccccc3[nH]2)CC1	3.73%	5.65%	6.23%	26.6%	65.8%	45.7%	8.93%	2.37%	0.53%	57.5%	124.91 µg/mL (≈ 435 µM)	4.8%	35.7%	0%	2.62%	1.09	0.45%	9.55%	4.12%	0%	Activity (Rattus norvegicus [21]): 10.6%; Activity [22]: 13.3%; Activity (Rattus norvegicus [23]): 5.22%; Time (Rattus norvegicus [24]): 0.5 h; Tmax (Rattus norvegicus [25]): 2.5 h; Activity (Rattus norvegicus [26]): 45.02%; Activity (Rattus norvegicus [27]): 12.25%; Activity (Rattus norvegicus [28]): 0%; Activity (Rattus norvegicus [29]): 1.4%
Cl.O=S(=O)(c1cccc2cnccc12)N1CCCNCC1 [FASUDIL HYDROCHLORIDE]	3.3%	7.8%	5.4%				9%	1.95%	3.42%			4.62%		0%	1.85%	1.73	0.65%	10.17%	4.62%	0%	Activity (Rattus norvegicus [21]): 16.67%; Activity (Rattus norvegicus [23]): 5.57%; Time (Rattus norvegicus [24]): 0.5 h; Tmax (Rattus norvegicus [25]): 2 h; Activity (Rattus norvegicus [26]): 54.84%; Activity (Rattus norvegicus [27]): 9.71%; Activity (Rattus norvegicus [28]): 0.3%; Activity (Rattus norvegicus [29]): 0.97%
O=C1O[C@H]([C@@H](O)CO)C(O)=C1O [ASCORBIC ACID]				54.9%	97.9%	79.4%				92.9%	15.74 µg/mL (≈ 89.4 µM)		62.5%								Activity [22]: 39.5%
